Columns and labels:
[1] = target: T1, MAGL (Mus musculus, UniProt O35678); test: In vitro competitive activity-based protein profiling (mouse), MAGL gel band; format: biochemical; settings: for inhibition at 1 µM: read-out: MAGL % inh. 1 μM; for IC50: mouse
T1 construct: Proteomes (mouse brain membrane fraction or cell lysates); from tissue; host or cells: mouse brain membrane fraction (or cell lysates)
T1 sequence (O35678 1-303): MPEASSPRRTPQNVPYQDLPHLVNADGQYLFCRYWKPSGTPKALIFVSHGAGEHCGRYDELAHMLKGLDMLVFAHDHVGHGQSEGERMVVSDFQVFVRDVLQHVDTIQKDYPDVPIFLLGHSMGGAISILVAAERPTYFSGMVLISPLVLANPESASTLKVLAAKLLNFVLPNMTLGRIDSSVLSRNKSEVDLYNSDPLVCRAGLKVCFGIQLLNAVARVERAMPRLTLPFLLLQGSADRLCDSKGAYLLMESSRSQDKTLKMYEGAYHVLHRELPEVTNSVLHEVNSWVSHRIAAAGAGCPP
Summary of the method: (§1)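 Residual enzyme activity is taken from in-gel fluorescence after SDS-PAGE. Proteome from mouse brain membranes or cell lysates (total protein 1.0 mg/mL) sees inhibitor for 30 min, then FP-Rh or HT-01 probe (50 μM DMSO stock) for 30 min, both steps at 37 °C.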

[2] = target: T2, FAAH (Mus musculus, UniProt O08914); test: In vitro competitive activity-based protein profiling (mouse), FAAH gel band; format: biochemical; settings: for inhibition at 1 µM: read-out: FAAH % inh. 1 μM; for IC50: mouse
T2 construct: Proteomes (mouse brain membrane fraction or cell lysates); from tissue; host or cells: mouse brain membrane fraction (or cell lysates)
T2 sequence (O08914 1-579): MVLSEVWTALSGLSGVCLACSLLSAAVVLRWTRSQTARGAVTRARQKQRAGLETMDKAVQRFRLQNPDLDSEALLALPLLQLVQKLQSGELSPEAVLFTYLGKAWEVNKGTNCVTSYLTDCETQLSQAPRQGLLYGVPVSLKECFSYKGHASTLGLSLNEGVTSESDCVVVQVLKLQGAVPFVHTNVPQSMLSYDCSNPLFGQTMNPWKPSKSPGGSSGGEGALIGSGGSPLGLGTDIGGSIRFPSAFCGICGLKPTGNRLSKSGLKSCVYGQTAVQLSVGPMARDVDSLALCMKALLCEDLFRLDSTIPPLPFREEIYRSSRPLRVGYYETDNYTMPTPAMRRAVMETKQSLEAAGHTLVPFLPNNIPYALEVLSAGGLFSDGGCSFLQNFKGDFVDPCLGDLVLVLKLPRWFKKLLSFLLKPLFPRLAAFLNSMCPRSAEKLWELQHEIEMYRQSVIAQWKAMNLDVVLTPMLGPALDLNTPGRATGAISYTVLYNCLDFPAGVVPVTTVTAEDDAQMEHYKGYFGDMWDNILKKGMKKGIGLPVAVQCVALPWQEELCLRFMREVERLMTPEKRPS
Summary of the method: as §1

[3] = target: T3, MAGL (Homo sapiens, UniProt Q99685); test: In vitro competitive activity-based protein profiling (human), MAGL gel band; format: biochemical
T3 construct: Proteomes (human prefrontal cortex or cell membrane fractions); from tissue; host or cells: human prefrontal cortex (or cell membrane fractions)
T3 sequence (Q99685 1-303): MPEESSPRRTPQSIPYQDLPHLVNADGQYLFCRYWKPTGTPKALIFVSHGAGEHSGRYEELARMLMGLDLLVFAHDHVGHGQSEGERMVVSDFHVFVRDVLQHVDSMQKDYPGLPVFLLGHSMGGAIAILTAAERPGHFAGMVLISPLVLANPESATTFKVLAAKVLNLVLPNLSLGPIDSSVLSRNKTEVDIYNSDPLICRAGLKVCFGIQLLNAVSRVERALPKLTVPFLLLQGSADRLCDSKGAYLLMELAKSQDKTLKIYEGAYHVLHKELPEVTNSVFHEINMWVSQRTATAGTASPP
Description: In Vitro Competitive Activity-Based Protein Profiling (Human).
Proteomes (human prefrontal cortex or cell membrane fractions) (50 μL, 1.0-2.0 mg/mL total protein concentration) were preincubated with varying concentrations of inhibitors at 37° C. After 30 min, FP-Rh or JW912 (1.0 μL, 50 μM in DMSO) was added and the mixture was incubated for another 30 min at room temperature. Reactions were quenched with SDS loading buffer (15 μL—4×) and run on SDS-PAGE. Following gel imaging, serine hydrolase activity was determined by measuring fluorescent intensity of gel bands corresponding to MAGL using ImageJ 1.49k software.

[4] = target: T1, MAGL; test: Mouse brain proteomes from inhibitor treated mice (oral gavage, sacrificed 4 h after administration); format: in vivo; settings: read-out: MAGL % inh. 5 mg/kg
Summary of the method: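 Brains were collected 4 h after oral gavage dosing of wild-type C57Bl/6J mice, vehicle polyethylene glycol. Proteomes from these brains were then analyzed for MAGL and other serine hydrolase activity.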

| inhibition at 1 µM [1] | inhibition at 1 µM [2] | IC50 [3] | inhibition at 1 µM ([3]; at 1 μM, read-out: MAGL human % inh at 1 μM) | IC50 [1] | IC50 [2] | inhibition at 5 mg/kg [4] | SMILES |
| --- | --- | --- | --- | --- | --- | --- | --- |
| ≥ 75% | 0 to 25% | ≤ 0.1 µM | – | – | – | – | CS(=O)(=O)Nc1ccn(C(=O)N2CCN(Cc3ccc(C(F)(F)F)cc3-c3ncon3)CC2)n1 [Example 112, N-(1-(4-(2-(1,2,4-oxadiazol-3-yl)-4-(trifluoromethyl)benzyl)piperazine-1-carbonyl)-1H-pyrazol-3-yl)methanesulfonamide] |
| ≥ 75% | 0 to 25% | 0.1 to 1 µM | – | – | – | – | CS(=O)(=O)Nc1ccn(C(=O)N2CCN(Cc3ccc(C(F)(F)F)cc3-c3nnco3)CC2)n1 [Example 113, N-(1-(4-(2-(1,3,4-oxadiazol-2-yl)-4-(trifluoromethyl)benzyl)piperazine-1-carbonyl)-1H-pyrazol-3-yl)methanesulfonamide] |
| ≥ 75% | 0 to 25% | ≤ 0.1 µM | – | – | – | – | CS(=O)(=O)Nc1ccn(C(=O)N2CCN(Cc3ccc(C(F)(F)F)cc3N3CCN(C(=O)CO)CC3)CC2)n1 [Example 116, N-(1-(4-(2-(4-(2-hydroxyacetyl)piperazin-1-yl)-4-(trifluoromethyl)benzyl)piperazine-1-carbonyl)-1H-pyrazol-3-yl)methanesulfonamide] |
| 0 to 25% | 0 to 25% | – | 25% | – | – | – | CS(=O)(=O)Nc1ccn(C(=O)N2CCN(Cc3ccc(C(F)(F)F)cc3C3CCN(CC(=O)O)CC3)CC2)n1 [Example 118, 2-(4-(2-((4-(3-(methylsulfonamido)-1H-pyrazole-1-carbonyl)piperazin-1-yl)methyl)-5-(trifluoromethyl)phenyl)piperidin-1-yl)acetic Acid] |
| ≥ 75% | 0 to 25% | ≤ 0.1 µM | – | 0.1 to 1 µM | 1 to 10 µM | – | CS(=O)(=O)Nc1ccn(C(=O)N2CCN(Cc3cccc(-c4cccnc4)c3)CC2)n1 [Example 120, N-(1-(4-(3-(pyridin-3-yl)benzyl)piperazine-1-carbonyl)-1H-pyrazol-3-yl) methanesulfonamide] |
| ≥ 75% | 0 to 25% | – | – | ≤ 0.1 µM | 1 to 10 µM | 50 to 75% | CS(=O)(=O)Nc1ccn(C(=O)N2CCN(Cc3ccc(C(F)(F)F)cc3N3CC4CCC(C3)O4)CC2)n1 [Example 130, N-(1-(4-(2-(8-oxa-3-azabicyclo[3.2.1]octan-3-yl)-4-(trifluoromethyl)benzyl)piperazine-1-carbonyl)-1H-pyrazol-3-yl) methanesulfonamide] |
| ≥ 75% | 0 to 25% | ≤ 0.1 µM | – | 0.1 to 1 µM | 1 to 10 µM | – | Cc1ccc(CN2CCN(C(=O)n3ccc(NS(C)(=O)=O)n3)CC2)c(N2CCCC2)c1 [Example 137, N-(1-(4-(4-methyl-2-(pyrrolidin-1-yl)benzyl)piperazine-1-carbonyl)-1H-pyrazol-3-yl) methanesulfonamide] |
| ≥ 75% | 0 to 25% | ≤ 0.1 µM | – | 0.1 to 1 µM | 1 to 10 µM | – | CS(=O)(=O)Nc1ccn(C(=O)N2CCN(Cc3ccc(C(F)(F)F)cc3N3CCOCC3)CC2)n1 [Example 140, N-(1-(4-(2-morpholino-4-(trifluoromethyl)benzyl)piperazine-1-carbonyl)-1H-pyrazol-3-yl) methanesulfonamide] |
| ≥ 75% | 0 to 25% | – | – | ≤ 0.1 µM | 1 to 10 µM | 0 to 25% | Cc1c(CN2CCCC23CCN(C(=O)n2ccc(NS(C)(=O)=O)n2)CC3)cccc1N1CCCCC1 [Example 142, N-(1-(1-(2-methyl-3-(piperidin-1-yl)benzyl)-1,8-diazaspiro[4.5]decane-8-carbonyl)-1H-pyrazol-3-yl) methanesulfonamide] |
| ≥ 75% | 0 to 25% | – | – | ≤ 0.1 µM | 1 to 10 µM | 25 to 50% | Cc1ccc(CN2CCN(C(=O)n3ccc(NS(C)(=O)=O)n3)CC2)c(N2CC3CCC(C2)O3)c1 [Example 146, N-(1-(4-(2-(8-oxa-3-azabicyclo[3.2.1]octan-3-yl)-4-methylbenzyl)piperazine-1-carbonyl)-1H-pyrazol-3-yl) methanesulfonamide] |
| ≥ 75% | 0 to 25% | 0.1 to 1 µM | – | – | – | – | CS(=O)(=O)Nc1ccn(C(=O)N2CCC3(CCCN3Cc3ccc(N4CCCC4)c(C(F)(F)F)c3)CC2)n1 [Example 159, N-(1-(1-(4-(pyrrolidin-1-yl)-3-(trifluoromethyl)benzyl)-1,8-diazaspiro[4.5]decane-8-carbonyl)-1H-pyrazol-3-yl) methanesulfonamide] |
| ≥ 75% | 0 to 25% | – | – | – | – | 0 to 25% | CS(=O)(=O)Nc1ccn(C(=O)N2CCC3(CCCN3Cc3ccc(C(F)(F)F)c(Cl)c3)CC2)n1 [Example 161, N-(1-(1-(3-chloro-4-(trifluoromethyl)benzyl)-1,8-diazaspiro[4.5]decane-8-carbonyl)-1H-pyrazol-3-yl) methanesulfonamide] |
| ≥ 75% | 0 to 25% | – | – | 1 to 10 µM | 1 to 10 µM | 0 to 25% | CC(=O)Nc1ccn(C(=O)N2CCN(Cc3cccc(C(F)(F)F)c3-c3nnn[nH]3)CC2)n1 [Example 223, N-(1-(4-(2-(1H-tetrazol-5-yl)-3-(trifluoromethyl)benzyl)piperazine-1-carbonyl)-1H-pyrazol-3-yl)acetamide] |
| ≥ 75% | 0 to 25% | – | – | ≤ 0.1 µM | 1 to 10 µM | 0 to 25% | CC(=O)Nc1ccn(C(=O)N2CCN(Cc3ccc(Cl)cc3N3CCC(C(=O)O)CC3)CC2)n1 [Example 248, 1-(2-((4-(3-acetamido-1H-pyrazole-1-carbonyl)piperazin-1-yl)methyl)-5-chlorophenyl) piperidine-4-carboxylic acid] |
| ≥ 75% | 0 to 25% | – | – | ≤ 0.1 µM | 1 to 10 µM | 0 to 25% | CC(=O)Nc1ccn(C(=O)N2CCN(Cc3ccc(Cl)cc3-c3nnn[nH]3)CC2)n1 [Example 262, N-(1-(4-(4-chloro-2-(1H-tetrazol-5-yl)benzyl)piperazine-1-carbonyl)-1H-pyrazol-3-yl)acetamide] |
| ≥ 75% | 0 to 25% | – | – | – | – | ≥ 75% | [2H]C([2H])([2H])C(=O)Nc1ccn(C(=O)N2CCC3(CCCN3Cc3ccc(Cl)c(C)c3)CC2)n1 [Example 286, N-(1-(1-(4-chloro-3-methylbenzyl)-1,8-diazaspiro[4.5]decane-8-carbonyl)-1H-pyrazol-3-yl)acetamide-2,2,2-d3] |
| ≥ 75% | 0 to 25% | – | – | ≤ 0.1 µM | 1 to 10 µM | 50 to 75% | CS(=O)(=O)Nc1ccn(C(=O)N2CCN(Cc3cccc(Cl)c3N3CCC4(CCOCC4)C3)CC2)n1 [Example 290, N-(1-(4-(3-chloro-2-(8-oxa-2-azaspiro[4.5]decan-2-yl)benzyl)piperazine-1-carbonyl)-1H-pyrazol-3-yl) methanesulfonamide] |

— patent US10519134B2, “Pyrazole compounds and methods of making and using same” (Lundbeck La Jolla Research Center, Inc., priority 2015, dated 2019)
